Test results: paper PMC9696794, “Synthesis and Antimicrobial Activity of Short Analogues of the Marine Antimicrobial Peptide Turgencin A: Effects of SAR Optimizations, Cys-Cys Cyclization and Lipopeptide Modifications” (International Journal of Molecular Sciences, 2022)
Values after ≈ are worked out from the molar mass of the structure shown. Where two headings read alike, the source gives them in different places. Where a SMILES comes first, the peptide text is derived from it. Bridges are numbered along the chain shown (N, C = ends). The star is where a group is joined. Octanoyl = CCCCCCCC(=O)*

Tests used:
[1] = system: E. coli MC4100 (wild type, WT); experiment: microbe, parasite or virus in culture; settings: for MIC: Escherichia coli, read-out: MIC E. coli MC4100 (WT); for MIC E. coli MC4100 (WT): wild type
Experimental: (§1) All cyclic and linear peptides were screened for antibacterial activity against four Gram-positive strains: B. subtilis (Bs, ATCC 23857), C. glutamicum (Cg, ATCC 13032), S. aureus (Sa, ATCC 9144) and S. epidermidis RP62A (Se, ATCC 35984), and two Gram-negative strains: E. coli (Ec, ATCC 25922) and P. aeruginosa (Pa, ATCC 27853). The activity was assessed using a broth microdilution assay according to a modified CLSI-based method. Briefly, overnight bacterial cultures were grown in Mueller–Hinton (MH) broth medium (Difco Laboratories, Detroit, MI, USA) for 2 h at room temperature. The optical density (OD600) was measured, and the bacterial suspensions were adjusted to 2.5–3 × 10^4 CFU/mL in MH medium. The bacterial suspension (50 µL) was distributed in 96-well plates (Nunc, Roskilde, Denmark) preloaded with two-fold dilution series (256 to 1 µg/mL) of peptide solutions (50 µL), giving a final well volume of 100 µL. The microplates were incubated in an EnVision 2103 microplate reader (PerkinElmer, Llantrisant, UK) at 35 °C, with OD595 recorded every hour for 24 h. MIC was defined as the lowest concentration of peptides showing an optical density less than 10% of the negative (growth) control, consisting of bacterial suspension and water. Polymyxin B sulfate (Sigma-Aldrich, St. Louis, MO, USA) and chlorhexidine acetate (CHX, Fresenius Kabi, Halden, Norway), both with concentrations ranging from 12.5 to 0.09 μg/mL, served as positive (growth inhibition) controls. All peptides were tested in triplicate.
(§2) MIC values were determined for all cyclic peptides against two E. coli strains: wild type (WT) MC4100 and the hyperpermeable variant NR698, having a deficient outer membrane. The NR698 strain, containing lptD4213/imp4213 mutation, was kindly provided by M. Grabowicz (Emory University School of Medicine, Rollins Research Center, Atlanta, GA, USA). The assay was performed in the same way as previously described for the antibacterial MIC assay.

[2] = system: E. coli NR698 (outer membrane permeable mutant, imp4213); experiment: microbe, parasite or virus in culture; settings: for MIC: Escherichia coli, read-out: MIC E. coli NR698 (mutant); for MIC E. coli NR698 (mutant): MC4100 NR698 imp4213, deficient outer membrane
Experimental: as §1, §2

[3] = system: E. coli (Ec, ATCC 25922); experiment: microbe, parasite or virus in culture; assay type: cell-based, Escherichia coli; settings: for MIC: Escherichia coli
How it was run: (§3)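 Cultures grown in Mueller–Hinton broth were adjusted by OD600 to 2.5–3 × 10^4 CFU/mL and mixed with two-fold peptide dilutions from 256 to 1 µg/mL. Plates were incubated at 35 °C with OD595 monitored every hour for 24 h.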

[4] = system: all bacterial strains; experiment: Antibacterial MIC assay, all bacterial strains together (range or geometric mean); assay type: cell-based; settings: for GM (geometric mean of the MIC values against all bacterial strains): Table 1, six bacterial strains; for GM of MIC Tot. bact.: Table S3, all bacterial test strains, MIC >256 set to 256
How it was run: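 Broth microdilution in Mueller–Hinton broth against B. subtilis, C. glutamicum, S. aureus, S. epidermidis RP62A, E. coli and P. aeruginosa; inoculum 2.5–3 × 10^4 CFU/mL, 35 °C, OD595 read hourly for 24 h. MIC: lowest peptide concentration giving OD below 10% of growth control; geometric mean across strains, triplicate.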

[5] = system: B. subtilis (Bs, ATCC 23857); experiment: microbe, parasite or virus in culture; assay type: cell-based, Bacillus subtilis
How it was run: as §3

[6] = system: Rhodotorula sp. (Rh); experiment: microbe, parasite or virus in culture; assay type: cell-based; settings: 48 h
How it was run: (§4)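 Overnight cultures in potato dextrose broth with 2% glucose at 25–30 °C were diluted to approx. 4 × 10^5 spores/mL and mixed 1:1 with two-fold peptide dilutions plated at 256 to 1 µg/mL. After 48 h at room temperature, OD600 was read. MIC was the lowest concentration giving OD below 10% of the growth control, in triplicate.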

[7] = system: Gram-positive bacterial strains; settings: Table S3; MIC >256 set to 256
How it was run: as §3

[8] = system: Gram-negative bacterial strains (E. coli and P. aeruginosa); experiment: Antibacterial MIC assay, Gram-negative strains together (range or geometric mean); assay type: cell-based; settings: Table S3; MIC >256 set to 256
How it was run: as §3

[9] = system: human red blood cells (RBC); experiment: Haemolytic activity assay; assay type: cell-based
How it was run: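 Washed human erythrocytes (1% hematocrit final) incubated 1 h at 37 °C with agitation with lipopeptides at 500–3.9 μM in PBS (≤1% DMSO), duplicates. Haemoglobin release read at 545 nm relative to 0.1% Triton X-100; EC50 is 50% haemolysis, averaged from three experiments.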

[10] = system: C. glutamicum (Cg, ATCC 13032); experiment: microbe, parasite or virus in culture; assay type: cell-based, Corynebacterium glutamicum
How it was run: as §3

[11] = system: S. aureus (Sa, ATCC 9144); experiment: microbe, parasite or virus in culture; assay type: cell-based, Staphylococcus aureus
How it was run: as §3

[12] = system: A. pullulans (Ap); experiment: microbe, parasite or virus in culture; assay type: cell-based, Aurobasidium pollulans; settings: 48 h
How it was run: as §4

[13] = system: C. albicans (Ca, ATCC 10231); experiment: microbe, parasite or virus in culture; assay type: cell-based, Candida albicans
How it was run: as §4

[14] = system: P. aeruginosa (Pa, ATCC 27853); experiment: microbe, parasite or virus in culture; assay type: cell-based, Pseudomonas aeruginosa
How it was run: as §3

[15] = system: fungi (A. pullulans, C. albicans, Rhodotorula sp.); experiment: Antifungal MIC assay, all fungi together (range or geometric mean); assay type: cell-based; settings: Table S3; MIC >128 set to 128
How it was run: as §4

[16] = system: S. epidermidis RP62A (Se, ATCC 35984); experiment: microbe, parasite or virus in culture; assay type: cell-based, Staphylococcus epidermidis
How it was run: as §3

Compound | MIC [1] [µg/mL] | MIC [2] [µg/mL] | GM (geometric mean of the MIC values against all bacterial strains) [4] [µg/mL] | GM of MIC Tot. bact. [4] [µg/mL] | MIC E. coli MC4100 (WT) [1] [µg/mL] | MIC E. coli NR698 (mutant) [2] [µg/mL] | Antimicrobial Activity (MIC) Gram + Bs ([5]; ATCC 23857, 24 h) [µg/mL] | Antimicrobial Activity (MIC) Fungi Rh [6] [µg/mL] | GM of MIC G+ [7] [µg/mL] | GM of MIC G- [8] [µg/mL] | Antimicrobial Activity (MIC) Gram + Cg ([10]; ATCC 13032, 24 h) [µg/mL] | Antimicrobial Activity (MIC) Gram + Sa ([11]; ATCC 9144, 24 h) [µg/mL] | Antimicrobial Activity (MIC) Fungi Ap [12] [µg/mL] | Antimicrobial Activity (MIC) Fungi Ca ([13]; ATCC 10231, 48 h) [µg/mL] | Antimicrobial Activity (MIC) Gram − Pa ([14]; ATCC 27853, 24 h) [µg/mL] | GM of MIC Fungi [15] [µg/mL] | Antimicrobial Activity (MIC) Gram − Ec ([3]; ATCC 25922, 24 h) [µg/mL] | Antimicrobial Activity (MIC) Gram + Se ([16]; ATCC 35984, 24 h) [µg/mL] | also measured
O=C(N[C@H](CO)[C@H](O)c1ccc([N+](=O)[O-])cc1)C(Cl)Cl [Chloramphenicol, reference compound] | 12.5 (≈ 38.7 µM) | 3.1 (≈ 9.59 µM) |  |  |  |  |  |  |  |  |  |  |  |  |  |  |  |  | MIC ([3]; ATCC25922, Table 2, laboratory strain, read-out: MIC E. coli ATCC 25922 (from Table 1)): 1.8 µg/mL (≈ 5.57 µM)
CCCCCCCC(=O)N[C@H]1CSSC[C@@H](C(=O)N[C@@H](CCCCN)C(=O)N[C@@H](CC(C)C)C(N)=O)NC(=O)[C@H](CCCCN)NC(=O)[C@H](Cc2c[nH]c3ccccc23)NC(=O)CNC(=O)CNC(=O)[C@@H]2CCCN2C(=O)[C@H](CCCCN)NC(=O)[C@H](CCCCN)NC(=O)CNC1=O [Peptide C8-cTurg-1, C8 -(CGKKPGGWKC)KL-NH2] (Octanoyl-CGKKPGGWKCKL-NH2; disulfide 1-10) |  |  | 25 | 25 | 16 (≈ 11.2 µM) | 8 (≈ 5.6 µM) | 4 | 8 | 16 | 64 | 4 | 128 | 64 | 64 | 128 | 32 | 32 | 32 | Selectivity index (SI) G- ([9]; Table S3, EC50/GM of Gram-negative strains, highest tested concentration used where EC50 above it): > 15; Selectivity index (SI) G+ ([9]; Table S3, EC50/GM of Gram-positive strains, highest tested concentration used where EC50 above it): > 59; Selectivity index (SI) Fungi ([9]; Table S3, EC50/GM of fungi, highest tested concentration used where EC50 above it): > 29; SI (selectivity index = EC50/GM) ([9]; haemolytic EC50 over GM of MIC against all bacterial strains, Table 1): >37; RBC Tox. (EC50), haemolytic activity ([9]; human RBC, 1 h, 37 °C, concentration giving 50% haemolysis): >942 µg/mL
CN[C@H](CC(C)C)C(=O)N[C@H]1C(=O)N[C@@H](CC(N)=O)C(=O)N[C@H]2C(=O)N[C@H]3C(=O)N[C@H](C(=O)N[C@H](C(=O)O)c4cc(O)cc(O)c4-c4cc3ccc4O)[C@H](O)c3ccc(c(Cl)c3)Oc3cc2cc(c3O[C@@H]2O[C@H](CO)[C@@H](O)[C@H](O)[C@H]2O[C@H]2C[C@](C)(N)[C@H](O)[C@H](C)O2)Oc2ccc(cc2Cl)[C@H]1O [Vancomycin, reference compound] | 64 (≈ 44.2 µM) | 0.3 (≈ 0.207 µM) |  |  |  |  |  |  |  |  |  |  |  |  |  |  |  |  | MIC ([3]; ATCC25922, read-out: MIC E. coli ATCC 25922 (from Table 1)): 125 µg/mL (≈ 86.3 µM)
CC(C)C[C@H](NC(=O)[C@H](CCCCN)NC(=O)[C@@H]1CSSC[C@H](N)C(=O)NCC(=O)N[C@@H](CCCCN)C(=O)N[C@@H](CCCCN)C(=O)N2CCC[C@H]2C(=O)NCC(=O)NCC(=O)N[C@@H](Cc2c[nH]c3ccccc23)C(=O)N[C@@H](CCCCN)C(=O)N1)C(N)=O [cTurg-1] (H-CGKKPGGWKCKL-NH2; disulfide 1-10; N-terminus assumed) |  |  | 161 | 161 |  | 64 (≈ 49.2 µM) | 256 | 64 | 128 | 256 | 16 | >256 | 32 | 128 | >256 | 64 | >256 | >256 | MIC against all bacterial strains ([4]; span over the strains): ≥ 256 µg/mL
Polymyxin B [reference compound] |  |  |  |  | 0.8 | 0.2 |  |  |  |  |  |  |  |  |  |  |  |  | Antimicrobial Activity (MIC) Gram + Bs ([5]; B. subtilis ATCC 23857, 24 h): 3.1 µg/mL; Antimicrobial Activity (MIC) Fungi Rh ([6]; Rhodotorula sp.): 3.1 µg/mL; Antimicrobial Activity (MIC) Gram + Cg ([10]; C. glutamicum ATCC 13032, 24 h): 3.1 µg/mL; Antimicrobial Activity (MIC) Gram + Sa ([11]; S. aureus ATCC 9144, 24 h): 12.5 µg/mL; Antimicrobial Activity (MIC) Fungi Ap ([12]; A. pullulans): 3.1 µg/mL; Antimicrobial Activity (MIC) Fungi Ca ([13]; C. albicans ATCC 10231, 48 h): 12.5 µg/mL; Antimicrobial Activity (MIC) Gram − Pa ([14]; P. aeruginosa ATCC 27853, 24 h): 3.1 µg/mL; Antimicrobial Activity (MIC) Gram − Ec ([3]; E. coli ATCC 25922, 24 h): 3.1 µg/mL; MIC E. coli ATCC 25922 (from Table 1) ([3]; Table 2, laboratory strain): 3.1 µg/mL; Antimicrobial Activity (MIC) Gram + Se ([16]; S. epidermidis RP62A ATCC 35984, 24 h): 6.3 µg/mL
